Test results published in US20260226073A1 (AURIGENE ONCOLOGY LIMITED, priority 2023, published 2026).

How the values were obtained:
[1] = biological target: T1, human recombinant CBL-b (human Biotin CBL-b recombinant protein a.a. 39-426) (Homo sapiens, UniProt Q13191); assay: Biochemical assay for CBL-b inhibition (ligand displacement TR-FRET); type: binding; conditions: 50 nM CBL-b, 0.3 μM Bodipy FL-Probe, read-out: IC50 (CBL-b inhibition, group)
T1 construct: human Biotin CBL-b recombinant protein a.a; 39-426; Biotin (biotinylated); made in house
How it was run: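 Biotinylated CBL-b (a.a. 39-426, 50 nM final) pre-incubated with compound 60 min at RT in HEPES/NaCl/Triton/BSA/TCEP buffer, then Bodipy FL probe (0.3 μM final) 60 min, then terbium-streptavidin 60 min. TR-FRET read at 665/615 nm; IC50 and % max inhibition from sigmoidal fits.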

[2] = test system: NFAT signaling pathway in Jurkat NFAT reporter cells; assay: Jurkat NFAT reporter assay; type: cell-based; conditions: Homo sapiens, 30 min with compound, then soluble anti-human CD3/CD28 antibody for 6 hours, luciferase readout, read-out: EC50 (Group)
How it was run: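 Jurkat cells bearing an NFAT-RE-driven luciferase reporter (1×10^5 per well) preincubated with Cbl-b inhibitor for 30 min, then stimulated 6 h with soluble anti-CD3/CD28. Luminescence read with Bio-Glo; values are fold change over anti-CD3/CD28-stimulated cells without inhibitor.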

T1 sequence (Q13191 39-426): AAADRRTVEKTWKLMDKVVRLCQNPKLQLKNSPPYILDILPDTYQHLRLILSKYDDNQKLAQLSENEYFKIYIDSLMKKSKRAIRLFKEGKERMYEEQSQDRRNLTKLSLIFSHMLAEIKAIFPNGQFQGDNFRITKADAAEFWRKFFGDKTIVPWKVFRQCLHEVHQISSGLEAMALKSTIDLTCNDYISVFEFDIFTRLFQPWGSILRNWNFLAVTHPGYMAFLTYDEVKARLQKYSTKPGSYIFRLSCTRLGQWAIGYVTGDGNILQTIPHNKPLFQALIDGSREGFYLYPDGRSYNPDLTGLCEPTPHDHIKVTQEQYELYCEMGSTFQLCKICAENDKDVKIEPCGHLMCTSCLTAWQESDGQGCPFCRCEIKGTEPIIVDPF

Question: With Cc1cc(CNCC2CC2(F)F)cc(N2Cc3ccc(C4(Cc5nncn5C)COC4)cc3C2=O)c1 (stereo not drawn) [Compound 20, 2-(3-((((2,2-Difluorocyclopropyl)methyl)amino)methyl)-5-methylphenyl)-6-(3-((4-methyl-4H-1,2,4-triazol-3-yl)methyl)oxetan-3-yl)isoindolin-1-one] as the molecule, how does the IC50 [1] read?
Answer: Its IC50 is 80 to 300 nM.

Question: What about the EC50 [2] of the same molecule?
Answer: Its EC50 is 300 to 1000 nM.

Question: For Cc1cc(N2Cc3ccc(C4(Cc5nncn5C)COC4)cc3C2=O)cc(CN2CCC[C@H](C)C2)n1 [Compound 23, (S)-6-(3-((4-Methyl-4H-1,2,4-triazol-3-yl)methyl)oxetan-3-yl)-2-(2-methyl-6-((3-methylpiperidin-1-yl)methyl)pyridin-4-yl)isoindolin-1-one], which IC50 [1] is on record?
Answer: The IC50 was 80 to 300 nM.

Question: And the EC50 [2]?
Answer: Its EC50 is 1000 to 10000 nM.

Question: Which results are given for Cc1cc(CN2CCC[C@H](C)C2)cc(N2Cc3ccc(C4(Cc5nncn5C)COC4)cc3C2=O)n1 [Compound 26, (S)-2-(6-Methyl-4-((3-methylpiperidin-1-yl)methyl)pyridin-2-yl)-6-(3-((4-methyl-4H-1,2,4-triazol-3-yl)methyl)oxetan-3-yl)isoindolin-1-one]?
Answer: IC50 [1]: < 80 nM; EC50 [2]: < 300 nM

Question: Which IC50 [1] does the source give for Cn1cnnc1CC1(c2ccc3c(c2)C(=O)N(c2cc(CN4CCC[C@H](C(F)(F)F)C4)cc(C(F)(F)F)n2)C3)COC1 [Compound 27, (S)-6-(3-((4-Methyl-4H-1,2,4-triazol-3-yl)methyl)oxetan-3-yl)-2-(6-(trifluoro-methyl)-4-((3-(trifluoromethyl)piperidin-1-yl)methyl)pyridin-2-yl)isoindolin-1-one] here?
Answer: Its IC50 is < 80 nM.

Question: What about the EC50 [2] of the same molecule?
Answer: Its EC50 is < 300 nM.

Question: How did the IC50 [1] turn out when CC1CN(Cc2cc(N3Cc4ccc(C5(Cc6nncn6C)COC5)cc4C3=O)nc(C(F)(F)F)c2)CCC1(F)F (stereo not drawn) [Compound 28, 2-(4-((4,4-Difluoro-3-methylpiperidin-1-yl)methyl)-6-(trifluoromethyl)pyridin-2-yl)-6-(3-((4-methyl-4H-1,2,4-triazol-3-yl)methyl)oxetan-3-yl)isoindolin-1-one] was run?
Answer: Its IC50 is 80 to 300 nM.

Question: And the EC50 [2]?
Answer: Its EC50 is 300 to 1000 nM.

Question: What does the source list for Cn1cnnc1CC1(c2ccc3c(c2)C(=O)N(c2cc(CN4CCCC(C#N)C4)cc(C(F)(F)F)n2)C3)COC1 (stereo not drawn) [Compound 29, 1-((2-(6-(3-((4-Methyl-4H-1,2,4-triazol-3-yl)methyl)oxetan-3-yl)-1-oxoisoindo-lin-2-yl)-6-(trifluoromethyl)pyridin-4-yl)methyl)piperidine-3-carbonitrile]?
Answer: IC50 [1]: 80 to 300 nM; EC50 [2]: 1000 to 10000 nM

Question: How did the IC50 [1] turn out when Cn1cnnc1CC1(c2ccc3c(c2)C(=O)N(c2cc(CN4CCC[C@H](O)C4)cc(C(F)(F)F)n2)C3)COC1 [Compound 30, (S)-2-(4-((3-Hydroxypiperidin-1-yl)methyl)-6-(trifluoromethyl)pyridin-2-yl)-6-(3-((4-methyl-4H-1,2,4-triazol-3-yl)methyl)oxetan-3-yl)isoindolin-1-one] was run?
Answer: Its IC50 is 300 to 5000 nM.

Question: And the EC50 [2]?
Answer: The EC50 was 1000 to 10000 nM.

Question: What does the source list for Cn1cnnc1CC1(c2ccc3c(c2)C(=O)N(c2cc(CN4CCc5ccccc5C4)cc(C(F)(F)F)n2)C3)COC1 [Compound 31, 2-(4-((3,4-Dihydroisoquinolin-2(1H)-yl)methyl)-6-(trifluoromethyl)pyridin-2-yl)-6-(3-((4-methyl-4H-1,2,4-triazol-3-yl)methyl)oxetan-3-yl)isoindolin-1-one]?
Answer: IC50 [1]: 300 to 5000 nM; EC50 [2]: 1000 to 10000 nM

Question: Which results are given for Cn1cnnc1CC1(c2ccc3c(c2)C(=O)N(c2cc(CN4CCCC(F)C4)cc(C(F)(F)F)n2)C3)COC1 (stereo not drawn) [Compound 33, 2-(4-((3-Fluoropiperidin-1-yl)methyl)-6-(trifluoromethyl)pyridin-2-yl)-6-(3-((4-methyl-4H-1,2,4-triazol-3-yl)methyl)oxetan-3-yl)isoindolin-1-one]?
Answer: IC50 [1]: 300 to 5000 nM; EC50 [2]: 1000 to 10000 nM

Question: With C[C@H]1CCN(Cc2cc(N3Cc4ccc(C5(Cc6nncn6C)COC5)cc4C3=O)nc(C(F)(F)F)c2)C1 [Compound 34, (S)-6-(3-((4-Methyl-4H-1,2,4-triazol-3-yl)methyl)oxetan-3-yl)-2-(4-((3-methyl-pyrrolidin-1-yl)methyl)-6-(trifluoromethyl)pyridin-2-yl)isoindolin-1-one] as the molecule, how does the IC50 [1] read?
Answer: The IC50 was 80 to 300 nM.

Question: What about the EC50 [2] of the same molecule?
Answer: Its EC50 is 300 to 1000 nM.

Question: For Cn1cnnc1CC1(c2ccc3c(c2)C(=O)N(c2cc(CN4CCCC(CO)C4)cc(C(F)(F)F)n2)C3)COC1 (stereo not drawn) [Compound 37, 2-(4-((3-(Hydroxymethyl)piperidin-1-yl)methyl)-6-(trifluoromethyl)pyridin-2-yl)-6-(3-((4-methyl-4H-1,2,4-triazol-3-yl)methyl)oxetan-3-yl)isoindolin-1-one], which IC50 [1] is on record?
Answer: Its IC50 is 80 to 300 nM.

Question: What about the EC50 [2] of the same molecule?
Answer: Its EC50 is 1000 to 10000 nM.

Question: C[C@H]1C[C@H](C)CN(Cc2cc(N3Cc4ccc(C5(Cc6nncn6C)COC5)cc4C3=O)nc(C(F)(F)F)c2)C1 [Compound 42, 2-(4-(((3S,5S)-3,5-Dimethylpiperidin-1-yl)methyl)-6-(trifluoromethyl)pyridin-2-yl)-6-(3-((4-methyl-4H-1,2,4-triazol-3-yl)methyl)oxetan-3-yl)isoindolin-1-one] was tested. Which IC50 [1] did it give?
Answer: Its IC50 is < 80 nM.

Question: What about the EC50 [2] of the same molecule?
Answer: Its EC50 is 300 to 1000 nM.

Question: For Cn1cnnc1CC1(c2ccc3c(c2)C(=O)N(c2cc(CN4CCC5(CC4)CC5)cc(C(F)(F)F)n2)C3)COC1 [Compound 44, 2-(4-((6-Azaspiro[2.5]octan-6-yl)methyl)-6-(trifluoromethyl)pyridin-2-yl)-6-(3-((4-methyl-4H-1,2,4-triazol-3-yl)methyl)oxetan-3-yl)isoindolin-1-one], which IC50 [1] is on record?
Answer: Its IC50 is 80 to 300 nM.

Question: What about the EC50 [2] of the same molecule?
Answer: The EC50 was 300 to 1000 nM.

Question: How did the IC50 [1] turn out when CC1CCCCN1Cc1cc(N2Cc3ccc(C4(Cc5nncn5C)COC4)cc3C2=O)nc(C(F)(F)F)c1 (stereo not drawn) [Compound 45, 6-(3-((4-Methyl-4H-1,2,4-triazol-3-yl)methyl)oxetan-3-yl)-2-(4-((2-methyl-piperidin-1-yl)methyl)-6-(trifluoromethyl)pyridin-2-yl)isoindolin-1-one] was run?
Answer: The IC50 was 300 to 5000 nM.

Question: And the EC50 [2]?
Answer: Its EC50 is 1000 to 10000 nM.

Question: What does the source list for C[C@@H]1CN(Cc2cc(N3Cc4ccc(C5(Cc6nncn6C)COC5)cc4C3=O)nc(C(F)(F)F)c2)CCO1 [Compound 46, (R)-6-(3-((4-Methyl-4H-1,2,4-triazol-3-yl)methyl)oxetan-3-yl)-2-(4-((2-methyl-morpholino)methyl)-6-(trifluoromethyl)pyridin-2-yl)isoindolin-1-one]?
Answer: IC50 [1]: 300 to 5000 nM; EC50 [2]: 1000 to 10000 nM

Question: With Cn1cnnc1CC1(c2ccc3c(c2)C(=O)N(c2cc(CN4CCCC(F)(F)C4)cc(C(F)(F)F)n2)C3)COC1 [Compound 47, 2-(4-((3,3-Difluoropiperidin-1-yl)methyl)-6-(trifluoromethyl)pyridin-2-yl)-6-(3-((4-methyl-4H-1,2,4-triazol-3-yl)methyl)oxetan-3-yl)isoindolin-1-one] as the molecule, how does the IC50 [1] read?
Answer: Its IC50 is 80 to 300 nM.

Question: What about the EC50 [2] of the same molecule?
Answer: The EC50 was 1000 to 10000 nM.

Question: Which results are given for Cn1cnnc1CC1(c2ccc3c(c2)C(=O)N(c2cc(CN4CCC(F)(F)CC4)cc(C(F)(F)F)n2)C3)COC1 [Compound 48, 2-(4-((4,4-Difluoropiperidin-1-yl)methyl)-6-(trifluoromethyl)pyridin-2-yl)-6-(3-((4-methyl-4H-1,2,4-triazol-3-yl)methyl)oxetan-3-yl)isoindolin-1-one]?
Answer: IC50 [1]: 80 to 300 nM; EC50 [2]: 300 to 1000 nM

Question: Which IC50 [1] does the source give for C[C@H]1CCCN(Cc2cc(CC3CC3)cc(N3Cc4ccc(C5(Cc6nncn6C)COC5)cc4C3=O)c2)C1 [Compound 49, (S)-2-(3-(Cyclopropylmethyl)-5-((3-methylpiperidin-1-yl)methyl)phenyl)-6-(3-((4-methyl-4H-1,2,4-triazol-3-yl)methyl)oxetan-3-yl)isoindolin-1-one] here?
Answer: Its IC50 is 80 to 300 nM.

Question: And the EC50 [2]?
Answer: Its EC50 is 300 to 1000 nM.
